Test results from US20100317673A1, “N-HETEROCYCLIC-IMIDAZO[1,2-a]PYRIDINE-2-CARBOXAMIDE DERIVATIVES, THEIR PREPARATION AND THEIR THERAPEUTIC APPLICATION” (SANOFI-AVENTIS, priority 2008, published 2010).

These compounds were tested against T1, mouse Nurr1 receptor (Mus musculus, UniProt Q06219) (assay: In vitro activity on N2A cells (NBRE-luciferase reporter)). Settings: N2A (Neuro-2A) cells endogenously expressing mouse Nurr1, stably transfected with 8NBRE-luciferase; 24 hours incubation.
T1 construct: a cell line (N2A) endogenously expressing the mouse Nurr1 receptor; host or cells: Neuro-2A (N2A) mouse neuroblastoma cells stably transfected with 8NBRE-luciferase
Format: cell-based
Method: The activity of the compounds according to the invention was evaluated on a cell line (N2A) endogenously expressing the mouse Nurr1 receptor and stably transfected with the NOT binding response element (NBRE) coupled to the luciferase reporter gene. The EC50 values are between 0.01 and 1000 nM. The assays were carried out according to the procedure described below.
The Neuro-2A cell line comes from a standard commercial source (ATCC). The Neuro-2A clone was obtained, from a spontaneous tumour originating from an A albino mouse strain, by R. J Klebe et al. This Neuro-2A line is subsequently stably transfected with 8NBRE-luciferase. The N2A-8NBRE cells are cultured until confluence in 75 cm^2 culture flasks containing DMEM supplemented with 10% of foetal calf serum, 4.5 g/l of glucose and 0.4 mg/ml of geneticin. After a week of culture, the cells are recovered with 0.25% trypsin for 30 seconds and then resuspended in DMEM without phenol red, containing 4.5 g/l of glucose and 10% of Hyclone delipidized serum, and deposited into transparent-bottom 96-well white plates. The cells are deposited at a rate of 60 000 per well in 75 μl for 24 hours before the addition of the products. The products are applied in 25 μl and incubated for a further 24 hours. On the day of the measurement, an equivalent volume (100 μl) of Steadylite is added to each well and then left for a period of 30 minutes in order to obtain complete cell lysis and maximum signal production. The plates are subsequently measured in a luminescence counter for microplates after having been sealed with an adhesive film. The products are prepared in the form of a stock solution at 10^−2M and then diluted in 100% of DMSO. Each product concentration is prediluted in culture medium before incubation with the cells, thus containing 0.625% final concentration of DMSO.

T1 sequence (Q06219 whole entry): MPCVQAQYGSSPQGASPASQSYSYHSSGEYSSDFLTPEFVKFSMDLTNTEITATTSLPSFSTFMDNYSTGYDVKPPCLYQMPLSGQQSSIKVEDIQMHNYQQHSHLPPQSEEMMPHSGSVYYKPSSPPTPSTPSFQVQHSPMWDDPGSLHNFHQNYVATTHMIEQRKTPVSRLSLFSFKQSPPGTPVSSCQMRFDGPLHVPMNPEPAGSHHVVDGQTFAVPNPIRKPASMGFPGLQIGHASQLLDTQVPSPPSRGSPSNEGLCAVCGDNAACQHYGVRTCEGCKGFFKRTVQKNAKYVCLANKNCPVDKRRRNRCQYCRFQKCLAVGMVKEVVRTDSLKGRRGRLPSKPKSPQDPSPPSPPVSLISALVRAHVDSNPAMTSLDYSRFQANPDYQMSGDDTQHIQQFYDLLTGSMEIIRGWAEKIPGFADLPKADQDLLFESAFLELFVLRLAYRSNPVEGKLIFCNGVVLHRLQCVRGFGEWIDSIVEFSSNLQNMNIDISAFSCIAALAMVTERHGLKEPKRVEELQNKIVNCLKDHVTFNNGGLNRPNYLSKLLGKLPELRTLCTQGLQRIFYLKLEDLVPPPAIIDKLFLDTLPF

EC50 [nM]	SMILES
10.5	CN(C)c1ccc2nc(C(=O)Nc3ccon3)cn2c1 [Compound 39, 6-(Dimethylamino)-N-(isoxazol-3-yl)imidazo[1,2-a]pyridine-2-carboxamide]
2.2	O=C(Nc1ccccn1)c1cn2cc(Cl)ccc2n1 [Compound 4, 6-Chloro-N-(pyridin-2-yl)imidazo[1,2-a]pyridine-2-carboxamide]
0.5	CN(C)c1ccc2nc(C(=O)Nc3ccccn3)cn2c1 [Compound 8, 6-(Dimethylamino)-N-(pyridin-2-yl)imidazo[1,2-a]pyridine-2-carboxamide]
0.04	O=C(Nc1ccccn1)c1cn2cc(-c3cccc(CO)c3)ccc2n1 [Compound 7, 6-[3-(Hydroxymethyl)phenyl]-N-(pyridin-2-yl)imidazo[1,2-a]pyridine-2-carboxamide]
